Reference: paper PMC11831560, “Development of the Pyrido[2,3-d]pyrimidin-7(8H)-one Scaffold toward Potent and Selective NUAK1 Inhibitors” (ACS Medicinal Chemistry Letters, 2025)

What was measured:
Assay in all cases: Kinase panel radiometric filter binding (33P-ATP)
Type in all cases: biochemical
Set-up in all cases: dose or concentration left out as unconfirmed
ROCK 2 = ROCK 2 (Homo sapiens, UniProt O75116)
Experimental: (§1) Table S4: AMPKA kinase activity data (ADP-Glo assay)
(§2) Compound pIC50 (Fold selectivity
(§3) Table S5. Kinase selectivity screening for 9 and 24 at 1 µM against a general kinase panel of 140 targets
(§4) in radiometric filter binding assay using 33P-γ−ATP at the MRC PPU International Centre for Kinase
(§5) Profiling, University of Dundee. pIC50 values were determined for compounds with <20% activity
(§6) Kinase activity s.d. pIC50 activity s.d. pIC50

HER4 = HER4 (Homo sapiens, UniProt Q15303)
Experimental: as §1, §2, §3, §4, §5, §6

LKB1 = LKB1 (Homo sapiens, UniProt Q15831)
Experimental: as §1, §2, §3, §4, §5, §6

SIK3 = SIK3 (Homo sapiens, UniProt Q9Y2K2)
Experimental: as §1, §2, §3, §4, §5, §6

IKKe = IKKe (Homo sapiens, UniProt Q14164)
Experimental: as §1, §2, §3, §4, §5, §6

CLK2 = CLK2 (Homo sapiens, UniProt P49760)
Experimental: as §1, §2, §3, §4, §5, §6

CHK1 = CHK1 (Homo sapiens, UniProt O14757)
Experimental: as §1, §2, §3, §4, §5, §6

p38a MAPK = p38a MAPK (Homo sapiens, UniProt Q16539)
Experimental: as §1, §2, §3, §4, §5, §6

CDK2-Cyclin A = CDK2-Cyclin A (Homo sapiens, UniProt P24941)
Experimental: as §1, §2, §3, §4, §5, §6

PKA = PKA (Homo sapiens, UniProt P17612)
Experimental: as §1, §2, §3, §4, §5, §6

PIM1 = PIM1 (Homo sapiens, UniProt P11309)
Experimental: as §1, §2, §3, §4, §5, §6

DAPK1 = DAPK1 (Homo sapiens, UniProt P53355)
Experimental: as §1, §2, §3, §4, §5, §6

IRR = IRR (Homo sapiens, UniProt P14616)
Experimental: as §1, §2, §3, §4, §5, §6

STK33 = STK33 (Homo sapiens, UniProt Q9BYT3)
Experimental: as §1, §2, §3, §4, §5, §6

ERK8 = ERK8 (Homo sapiens, UniProt Q8TD08)
Experimental: as §1, §2, §3, §4, §5, §6

MPSK1 = MPSK1 (Homo sapiens, UniProt O75716)
Experimental: as §1, §2, §3, §4, §5, §6

ZAP70 = ZAP70 (Homo sapiens, UniProt P43403)
Experimental: as §1, §2, §3, §4, §5, §6

PDGFRA = PDGFRA (Homo sapiens, UniProt P16234)
Experimental: as §1, §2, §3, §4, §5, §6

ERK1 = ERK1 (Homo sapiens, UniProt P27361)
Experimental: as §1, §2, §3, §4, §5, §6

TTK = TTK (Homo sapiens, UniProt P33981)
Experimental: as §1, §2, §3, §4, §5, §6

CK2 = CK2 (Homo sapiens, UniProt P68400)
Experimental: as §1, §2, §3, §4, §5, §6

MAPKAP-K3 = MAPKAP-K3 (Homo sapiens, UniProt Q16644)
Experimental: as §1, §2, §3, §4, §5, §6

TGFBR1 = TGFBR1 (Homo sapiens, UniProt P36897)
Experimental: as §1, §2, §3, §4, §5, §6

MST4 = MST4 (Homo sapiens, UniProt Q9P289)
Experimental: as §1, §2, §3, §4, §5, §6

PKCa = PKCa (Homo sapiens, UniProt P17252)
Experimental: as §1, §2, §3, §4, §5, §6

PDK1 = PDK1 (Homo sapiens, UniProt O15530)
Experimental: as §1, §2, §3, §4, §5, §6

ERK2 = ERK2 (Homo sapiens, UniProt P28482)
Experimental: as §1, §2, §3, §4, §5, §6

CK1γ2 = CK1γ2 (Homo sapiens, UniProt P78368)
Experimental: as §1, §2, §3, §4, §5, §6

MKK6 = MKK6 (Homo sapiens, UniProt P52564)
Experimental: as §1, §2, §3, §4, §5, §6

IKKb = IKKb (Homo sapiens, UniProt O14920)
Experimental: as §1, §2, §3, §4, §5, §6

MKK2 = MKK2 (Homo sapiens, UniProt P36507)
Experimental: as §1, §2, §3, §4, §5, §6

Lck = Lck (Homo sapiens, UniProt P06239)
Experimental: as §1, §2, §3, §4, §5, §6

Aurora A = Aurora A (Homo sapiens, UniProt O14965)
Experimental: as §1, §2, §3, §4, §5, §6

DDR2 = DDR2 (Homo sapiens, UniProt Q16832)
Experimental: as §1, §2, §3, §4, §5, §6

CK1δ = CK1δ (Homo sapiens, UniProt P48730)
Experimental: as §1, §2, §3, §4, §5, §6

ROCK 2, sequence (O75116 whole entry): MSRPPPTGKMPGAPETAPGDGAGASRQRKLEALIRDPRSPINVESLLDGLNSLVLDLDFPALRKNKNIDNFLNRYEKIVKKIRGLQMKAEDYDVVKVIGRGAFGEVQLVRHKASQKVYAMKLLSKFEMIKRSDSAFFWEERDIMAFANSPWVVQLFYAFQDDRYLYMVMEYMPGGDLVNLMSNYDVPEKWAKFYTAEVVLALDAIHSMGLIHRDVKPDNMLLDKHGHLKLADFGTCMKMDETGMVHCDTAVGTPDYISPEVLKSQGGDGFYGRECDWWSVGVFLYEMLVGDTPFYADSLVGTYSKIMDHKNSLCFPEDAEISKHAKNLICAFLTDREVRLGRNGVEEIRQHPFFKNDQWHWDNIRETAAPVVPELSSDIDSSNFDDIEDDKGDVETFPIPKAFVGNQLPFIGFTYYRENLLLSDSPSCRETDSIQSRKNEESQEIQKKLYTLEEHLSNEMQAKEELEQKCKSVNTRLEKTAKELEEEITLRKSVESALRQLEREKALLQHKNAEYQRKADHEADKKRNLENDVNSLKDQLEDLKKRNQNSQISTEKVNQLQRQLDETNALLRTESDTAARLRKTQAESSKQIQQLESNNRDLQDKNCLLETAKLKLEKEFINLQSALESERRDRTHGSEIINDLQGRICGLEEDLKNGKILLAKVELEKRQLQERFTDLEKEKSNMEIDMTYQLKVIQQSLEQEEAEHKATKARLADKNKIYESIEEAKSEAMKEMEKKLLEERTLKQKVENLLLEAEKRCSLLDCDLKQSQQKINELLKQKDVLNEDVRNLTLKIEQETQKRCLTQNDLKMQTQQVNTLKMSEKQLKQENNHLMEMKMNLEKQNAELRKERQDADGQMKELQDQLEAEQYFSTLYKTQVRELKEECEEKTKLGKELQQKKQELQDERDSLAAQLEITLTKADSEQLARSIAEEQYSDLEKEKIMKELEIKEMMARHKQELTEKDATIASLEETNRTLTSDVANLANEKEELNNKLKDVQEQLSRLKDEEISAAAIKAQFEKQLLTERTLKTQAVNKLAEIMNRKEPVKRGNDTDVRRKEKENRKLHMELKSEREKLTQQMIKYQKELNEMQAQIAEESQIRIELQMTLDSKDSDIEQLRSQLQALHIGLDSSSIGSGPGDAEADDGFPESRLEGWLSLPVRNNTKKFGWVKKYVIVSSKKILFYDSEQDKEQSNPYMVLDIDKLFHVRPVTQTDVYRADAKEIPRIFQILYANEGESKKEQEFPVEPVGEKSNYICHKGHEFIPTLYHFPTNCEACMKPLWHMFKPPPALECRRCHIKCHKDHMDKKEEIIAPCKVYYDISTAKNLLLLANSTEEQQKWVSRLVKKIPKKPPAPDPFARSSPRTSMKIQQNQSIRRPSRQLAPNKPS
IRR, sequence (P14616 27-1297): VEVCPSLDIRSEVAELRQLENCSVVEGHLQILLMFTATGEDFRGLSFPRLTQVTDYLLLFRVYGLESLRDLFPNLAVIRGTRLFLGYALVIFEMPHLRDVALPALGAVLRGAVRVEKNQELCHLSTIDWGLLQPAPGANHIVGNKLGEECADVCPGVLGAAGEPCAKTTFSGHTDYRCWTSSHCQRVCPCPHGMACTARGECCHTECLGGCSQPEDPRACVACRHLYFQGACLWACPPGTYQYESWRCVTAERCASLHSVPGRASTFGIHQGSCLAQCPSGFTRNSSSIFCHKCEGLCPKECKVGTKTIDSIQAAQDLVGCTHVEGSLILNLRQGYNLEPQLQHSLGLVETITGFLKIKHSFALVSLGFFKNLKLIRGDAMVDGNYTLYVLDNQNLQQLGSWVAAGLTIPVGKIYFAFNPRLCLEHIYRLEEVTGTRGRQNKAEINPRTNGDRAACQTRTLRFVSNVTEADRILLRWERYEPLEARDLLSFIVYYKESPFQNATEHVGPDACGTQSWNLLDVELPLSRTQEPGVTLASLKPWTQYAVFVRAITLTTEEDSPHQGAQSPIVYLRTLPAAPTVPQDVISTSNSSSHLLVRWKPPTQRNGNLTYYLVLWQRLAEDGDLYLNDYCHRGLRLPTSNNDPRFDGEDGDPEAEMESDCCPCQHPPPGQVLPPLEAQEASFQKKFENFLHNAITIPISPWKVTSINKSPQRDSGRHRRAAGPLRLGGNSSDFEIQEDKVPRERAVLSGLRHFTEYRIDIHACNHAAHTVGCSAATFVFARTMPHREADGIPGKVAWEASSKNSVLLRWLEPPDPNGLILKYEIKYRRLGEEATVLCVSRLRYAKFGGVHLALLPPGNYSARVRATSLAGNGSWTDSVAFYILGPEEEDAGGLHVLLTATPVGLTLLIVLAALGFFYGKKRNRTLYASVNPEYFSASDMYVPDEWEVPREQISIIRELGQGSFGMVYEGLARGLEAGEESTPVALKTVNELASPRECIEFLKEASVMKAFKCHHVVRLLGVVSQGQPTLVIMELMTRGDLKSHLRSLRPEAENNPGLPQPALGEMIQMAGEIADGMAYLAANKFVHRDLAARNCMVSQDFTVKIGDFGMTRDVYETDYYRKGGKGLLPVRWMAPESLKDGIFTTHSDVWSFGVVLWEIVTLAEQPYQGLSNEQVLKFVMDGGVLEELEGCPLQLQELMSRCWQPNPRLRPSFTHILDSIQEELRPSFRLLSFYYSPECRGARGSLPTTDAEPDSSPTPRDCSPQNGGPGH
DAPK1, sequence (P53355 whole entry): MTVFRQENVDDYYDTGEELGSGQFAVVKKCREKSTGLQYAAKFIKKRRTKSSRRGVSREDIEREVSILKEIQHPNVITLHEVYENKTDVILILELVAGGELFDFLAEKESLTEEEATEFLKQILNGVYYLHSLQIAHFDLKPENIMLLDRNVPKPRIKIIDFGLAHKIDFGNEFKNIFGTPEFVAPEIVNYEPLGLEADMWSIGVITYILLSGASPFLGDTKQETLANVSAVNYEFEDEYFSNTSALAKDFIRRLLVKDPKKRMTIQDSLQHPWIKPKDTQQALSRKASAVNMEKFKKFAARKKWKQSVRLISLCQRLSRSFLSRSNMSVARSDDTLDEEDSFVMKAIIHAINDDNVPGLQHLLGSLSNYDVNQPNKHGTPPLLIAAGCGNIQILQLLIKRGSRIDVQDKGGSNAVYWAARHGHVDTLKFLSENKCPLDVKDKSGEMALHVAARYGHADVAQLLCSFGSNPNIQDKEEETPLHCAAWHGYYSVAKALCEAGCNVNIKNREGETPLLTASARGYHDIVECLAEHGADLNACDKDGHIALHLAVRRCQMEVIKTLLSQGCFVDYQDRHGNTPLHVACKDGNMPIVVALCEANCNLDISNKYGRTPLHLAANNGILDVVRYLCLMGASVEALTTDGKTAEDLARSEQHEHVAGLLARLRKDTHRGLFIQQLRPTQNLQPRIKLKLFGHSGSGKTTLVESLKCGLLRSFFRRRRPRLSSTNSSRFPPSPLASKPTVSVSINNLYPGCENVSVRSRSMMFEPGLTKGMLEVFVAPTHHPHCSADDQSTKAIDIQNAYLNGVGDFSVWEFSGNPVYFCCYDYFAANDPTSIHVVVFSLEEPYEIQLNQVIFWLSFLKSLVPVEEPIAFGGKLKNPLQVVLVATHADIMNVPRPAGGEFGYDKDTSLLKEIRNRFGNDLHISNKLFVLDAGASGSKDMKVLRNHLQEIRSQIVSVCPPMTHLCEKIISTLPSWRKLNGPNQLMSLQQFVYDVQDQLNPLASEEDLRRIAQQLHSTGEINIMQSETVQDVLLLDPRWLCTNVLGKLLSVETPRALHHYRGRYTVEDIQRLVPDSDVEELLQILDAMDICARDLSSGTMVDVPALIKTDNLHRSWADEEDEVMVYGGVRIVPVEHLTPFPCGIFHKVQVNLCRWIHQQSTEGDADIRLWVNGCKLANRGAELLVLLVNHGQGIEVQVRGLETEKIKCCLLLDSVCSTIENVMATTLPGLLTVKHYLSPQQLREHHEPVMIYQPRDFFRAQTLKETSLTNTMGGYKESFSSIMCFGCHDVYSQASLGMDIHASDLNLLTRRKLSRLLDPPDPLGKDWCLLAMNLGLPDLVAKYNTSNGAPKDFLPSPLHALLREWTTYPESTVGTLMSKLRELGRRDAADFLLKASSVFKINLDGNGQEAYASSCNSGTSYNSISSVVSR
Lck, sequence (P06239 whole entry): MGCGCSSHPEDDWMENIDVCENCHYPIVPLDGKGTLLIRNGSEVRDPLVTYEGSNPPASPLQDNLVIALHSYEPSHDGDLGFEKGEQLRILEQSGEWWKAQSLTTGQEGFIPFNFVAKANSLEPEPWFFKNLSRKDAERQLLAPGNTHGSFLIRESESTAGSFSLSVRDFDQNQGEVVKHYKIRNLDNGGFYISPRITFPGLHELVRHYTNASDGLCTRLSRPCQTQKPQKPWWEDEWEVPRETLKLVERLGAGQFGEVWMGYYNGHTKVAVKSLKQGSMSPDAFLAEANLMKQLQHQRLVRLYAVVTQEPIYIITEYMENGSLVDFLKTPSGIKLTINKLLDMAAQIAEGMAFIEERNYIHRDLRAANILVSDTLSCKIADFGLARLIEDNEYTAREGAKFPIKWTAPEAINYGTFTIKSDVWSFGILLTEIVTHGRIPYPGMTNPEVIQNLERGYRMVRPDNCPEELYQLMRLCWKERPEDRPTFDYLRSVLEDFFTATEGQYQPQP
ERK1, sequence (P27361 whole entry): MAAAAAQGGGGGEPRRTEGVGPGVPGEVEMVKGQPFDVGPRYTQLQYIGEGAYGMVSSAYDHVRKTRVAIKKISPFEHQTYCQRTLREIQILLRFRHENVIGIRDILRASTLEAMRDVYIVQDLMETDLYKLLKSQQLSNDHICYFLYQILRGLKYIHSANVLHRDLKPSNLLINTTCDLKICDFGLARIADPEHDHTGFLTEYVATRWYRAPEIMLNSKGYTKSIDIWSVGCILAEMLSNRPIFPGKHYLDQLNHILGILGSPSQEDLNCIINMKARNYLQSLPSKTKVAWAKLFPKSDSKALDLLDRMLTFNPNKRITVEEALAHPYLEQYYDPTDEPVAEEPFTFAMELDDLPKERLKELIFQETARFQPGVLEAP

Row | SMILES | % activity remaining (ROCK 2) [%] | % activity remaining (HER4) [%] | % activity remaining (LKB1) [%] | % activity remaining (SIK3) [%] | % activity remaining (IKKe) [%] | % activity remaining (CLK2) [%] | % activity remaining (CHK1) [%] | % activity remaining (p38a MAPK) [%] | % activity remaining (CDK2-Cyclin A) [%] | % activity remaining (PKA) [%] | % activity remaining (PIM1) [%] | % activity remaining (DAPK1) [%] | % activity remaining (IRR) [%] | % activity remaining (STK33) [%] | % activity remaining (ERK8) [%] | % activity remaining (MPSK1) [%] | % activity remaining (ZAP70) [%] | % activity remaining (PDGFRA) [%] | % activity remaining (ERK1) [%] | % activity remaining (TTK) [%] | other results
1 | Cc1cc(=O)n(C2CCCC2)c2nc(Nc3ccc(N4CC5CC(C4)N5C)cc3)ncc12 [Compound 9] | 56 | 118 | 104 | 85 | 84 | 23 | 57 | 92 | 59 | 84 | 90 | 60 | 70 | 101 | 47 | 114 | 94 | 57 | 97 | 54 | % activity remaining (CK2): 108%; % activity remaining (MAPKAP-K3): 84%; % activity remaining (TGFBR1): 92%; % activity remaining (MST4): 61%; % activity remaining (PKCa): 86%; % activity remaining (PDK1): 90%; % activity remaining (ERK2): 93%; % activity remaining (CK1γ2): 34%; % activity remaining (MKK6): 84%; % activity remaining (IKKb): 93%; % activity remaining (MKK2): 94%; % activity remaining (Lck): 64%; % activity remaining (Aurora A): 52%; % activity remaining (DDR2): 39%; % activity remaining (CK1δ): 66%
2 | CN1C2CC1CN(c1ccc(Nc3ncc4ccn(CC5CCOCC5)c4n3)cc1)C2 [Compound 24] | 78 | 74 | 100 | 74 | 93 | 90 | 75 | 93 | 79 | 90 | 84 | 125 | 94 | 93 | 76 | 76 | 95 | 90 | 98 | 99 | % activity remaining (CK2): 96%; % activity remaining (MAPKAP-K3): 109%; % activity remaining (TGFBR1): 75%; % activity remaining (MST4): 92%; % activity remaining (PKCa): 96%; % activity remaining (PDK1): 95%; % activity remaining (ERK2): 114%; % activity remaining (CK1γ2): 107%; % activity remaining (MKK6): 88%; % activity remaining (IKKb): 103%; % activity remaining (MKK2): 91%; % activity remaining (Lck): 67%; % activity remaining (Aurora A): 54%; % activity remaining (DDR2): 82%; % activity remaining (CK1δ): 93%
